The source of these data is US7300950B2, “Pyrazole derivatives, their preparation and their use in pharmaceuticals” (Aventis Pharma Deutschland GmbH, priority 1997, dated 2007).

Data set [1] has as its target T1, soluble guanylate cyclase (sGC) isolated from bovine lung (Bos taurus, UniProt P16068+P19687).
T1 construct: The sGC which was employed had been isolated from bovine lung; from tissue; host or cells: bovine lung
T1 sequence (P16068 1-619): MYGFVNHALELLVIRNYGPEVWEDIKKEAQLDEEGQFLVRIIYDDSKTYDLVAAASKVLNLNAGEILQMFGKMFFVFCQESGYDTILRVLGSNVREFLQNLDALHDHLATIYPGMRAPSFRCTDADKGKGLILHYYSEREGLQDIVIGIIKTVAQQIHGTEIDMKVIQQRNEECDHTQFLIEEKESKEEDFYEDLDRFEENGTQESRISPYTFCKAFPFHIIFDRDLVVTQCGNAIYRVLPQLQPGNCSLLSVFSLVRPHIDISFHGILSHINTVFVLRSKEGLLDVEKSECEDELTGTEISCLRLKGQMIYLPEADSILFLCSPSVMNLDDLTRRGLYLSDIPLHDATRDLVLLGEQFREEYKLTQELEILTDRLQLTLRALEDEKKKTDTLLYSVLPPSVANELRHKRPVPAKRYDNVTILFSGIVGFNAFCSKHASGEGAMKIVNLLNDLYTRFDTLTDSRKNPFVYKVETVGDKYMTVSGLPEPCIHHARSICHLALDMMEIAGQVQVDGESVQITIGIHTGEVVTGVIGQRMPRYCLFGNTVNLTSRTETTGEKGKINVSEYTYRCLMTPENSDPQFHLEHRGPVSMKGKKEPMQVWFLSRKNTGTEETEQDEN
T1 sequence (P19687 1-691): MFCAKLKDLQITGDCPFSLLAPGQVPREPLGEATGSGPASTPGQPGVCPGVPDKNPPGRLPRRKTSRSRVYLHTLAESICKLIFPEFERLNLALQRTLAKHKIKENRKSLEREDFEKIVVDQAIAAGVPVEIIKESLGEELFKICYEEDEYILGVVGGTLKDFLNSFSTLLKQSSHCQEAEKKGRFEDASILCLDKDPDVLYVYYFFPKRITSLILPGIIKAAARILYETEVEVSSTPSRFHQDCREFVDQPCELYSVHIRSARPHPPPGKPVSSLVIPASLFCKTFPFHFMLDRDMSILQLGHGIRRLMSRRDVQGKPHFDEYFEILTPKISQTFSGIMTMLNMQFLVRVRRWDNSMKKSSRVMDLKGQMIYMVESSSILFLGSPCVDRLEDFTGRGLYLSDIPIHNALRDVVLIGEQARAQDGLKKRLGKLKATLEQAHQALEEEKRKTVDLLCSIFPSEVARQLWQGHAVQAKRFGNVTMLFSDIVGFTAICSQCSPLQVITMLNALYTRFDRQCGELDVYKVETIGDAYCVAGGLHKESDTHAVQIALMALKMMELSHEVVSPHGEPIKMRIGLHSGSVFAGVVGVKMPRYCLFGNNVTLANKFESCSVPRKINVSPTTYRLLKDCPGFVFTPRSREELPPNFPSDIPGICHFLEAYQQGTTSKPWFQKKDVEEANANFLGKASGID
Nature of the data set: Activation of the soluble guanylate cyclase (cGMP enzyme immunoassay). Format: biochemical. Particulars: n-fold stimulation of basal enzyme activity = [cGMP]test substance/[cGMP]control. The method, then: 1. Activation of the Soluble Guanylate Cyclase
The activation of the sGC, which catalyzes the conversion of GTP into cyclic guanosine monophosphate cGMP and pyrophosphate, by the compounds according to the invention was quantified with the aid of an enzyme immunoassay “EIA” from Amersham. For this purpose the substances to be tested were initially incubated with sGC in microtiter plates, and the amount of the cGMP formed was then determined.
The test solutions (100 μl per well) contained 50 mM triethanolamine “TEA” buffer (pH 7.5), 3 mM MgCl2, 3 mM reduced glutathione “GSH,” 0.1 mM GTP, 1 mM 3-isobutyl-1-methylxanthine “IBMX,” suitably diluted enzyme solution and the substance to be tested or, in the control experiments, the solvent. […] The DMSO concentration in the test solution was 5% (v/v). The reaction was initiated by addition of the sGC. The reaction mixture was incubated at 37° C. for 15 to 20 minutes and then stopped by ice-cooling and addition of the stop reagent (50 mM EDTA, pH 8.0). An aliquot of 50 μl was taken and used for determining the cGMP content using the acetylation protocol of the Amersham cGMP-EIA kit. The absorption of the samples was measured at 450 nm (reference wavelength 620 nm) in a microtiter plate reader. The cGMP concentration was determined using a standard curve which was obtained under the same test conditions. […] This is calculated using the formula: n-fold stimulation=[cGMP]test substance/[cGMP]control.

The test system of a further data set is rat aorta rings. Nature of the data set: Relaxation of rat aorta (phenylephrine-precontracted aorta rings, organ bath). The note with it: concentration by which phenylephrine (1 μM) contraction is inhibited by 50% (50% relaxation). On the set-up: species or system rat (Wistar-Kyoto). An excerpt: 2. Relaxation of Rat Aorta
For this test, normotensive male Wistar-Kyoto rats were sacrificed by a blow to the neck. The abdominal cavity and the thorax were opened by a medium sternotomy. The descending aorta was subsequently removed, freed of connective tissue and divided into 8 rings of a length of approximately 4 mm. The tip of a pair of tweezers was introduced into the lumen of 4 of the 8 rings. The endothelium was removed by carefully rolling the rings over the tip of the pair of tweezers. All 8 aorta rings (4 with endothelium and 4 without endothelium) were subsequently suspended in an organ bath (Schuler-Organbad; Hugo Sachs Elektronik) at a constant temperature of 37° C. for the isometric determination of the contractile tone. For 30 minutes, the rings were calibrated at a resting tension of 1 g in carbonated (95% O2; 5% CO2) Krebs-Henseleit solution (composition: Na^+ 144.0 mM; K^+ 5.9 mM; Cl^− 126.9 mM; Ca^2+ 1.6 mM; Mg^2+ 1.2 mM; H2PO4^− 1.2 mM; SO4^2− 1.2 mM; HCO3^− 25.0 mM; D-glucose 11.1 mM) of pH 7.4. […] After a 30-minute washing period, the rings were then again precontracted by addition of phenylephrine (1 μM), and the relaxing action of the test substances of the formula I was determined by administration of cumulative doses of the latter. The data were evaluated by standard methods. […]

The melting point is the temperature of the solid-liquid transition. In turn, `O=C(O)c1ccc(-c2nn(-c3cc(C(F)(F)F)cc(C(F)(F)F)c3)c3ccccc23)o1` [Example 4, 3-(5-Carboxy-2-furyl)-1-(3,5-bis(trifluoromethyl)phenyl)indazole] showed a melting point of 256 to 257 °C. The compound `CCOC(=O)c1ccc(-c2nn(-c3cc(C(F)(F)F)cc(C(F)(F)F)c3)c3ccccc23)o1` [Example 5, 3-(5-Ethoxycarbonyl-2-furyl)-1-(3,5-bis(trifluoromethyl)phenyl)indazole] gave a melting point of 128 to 129 °C. `OCc1ccc(-c2nn(-c3cc(C(F)(F)F)cc(C(F)(F)F)c3)c3ccccc23)o1` [Example 6, 3-(5-Hydroxymethyl-2-furyl)-1-(3,5-bis(trifluoromethyl)phenyl)indazole] registered a melting point of 136 to 138 °C. The n-fold stimulation in data set [1] (concentration 10 μM) is listed as 3.3-fold. `O=C(OCCO)c1ccc(-c2nn(Cc3ccccc3)c3ccccc23)o1` [Example 7, 1-Benzyl-3-(5-((2-hydroxyethoxy)carbonyl)-2-furyl)indazole]: the n-fold stimulation in data set [1] (concentration 100 μM) is reported as 5.5-fold. Take `O=C(Nc1ccccc1)c1ccc(-c2nn(Cc3ccccc3)c3ccccc23)o1` [Example 21, 1-Benzyl-3-(5-(N-phenylcarbamoyl)-2-furyl)indazole]: the melting point was 138 to 143 °C. In addition, the n-fold stimulation in data set [1] (concentration 100 μM) is listed as 3-fold. Regarding `O=C(Nc1ccc(Cl)cc1)c1ccc(-c2nn(Cc3ccccc3)c3ccccc23)o1` [Example 22, 1-Benzyl-3-(5-(N-(4-chlorophenyl)carbamoyl)-2-furyl)indazole], the melting point lay in the range of 202 to 205 °C. `O=C(Nc1ccc([N+](=O)[O-])cc1)c1ccc(-c2nn(Cc3ccccc3)c3ccccc23)o1` [Example 23, 1-Benzyl-3-(5-(N-(4-nitrophenyl)carbamoyl)-2-furyl)indazole] registered a melting point of 204 to 208 °C. As for `O=C(Nc1ccc2ccccc2c1)c1ccc(-c2nn(Cc3ccccc3)c3ccccc23)o1` [Example 24, 1-Benzyl-3-(5-(N-(2-naphthyl)carbamoyl)-2-furyl)indazole], the melting point was determined as 167 °C. Consider `O=C(Nc1nccs1)c1ccc(-c2nn(Cc3ccccc3)c3ccccc23)o1` [Example 25, 1-Benzyl-3-(5-(N-(2-thiazolyl)carbamoyl)-2-furyl)indazole], for which the melting point was 167 to 168 °C. The n-fold stimulation in data set [1] (concentration 10 μM) is given as 2.8-fold.

For `O=C(NOCc1ccccc1)c1ccc(-c2nn(Cc3ccccc3)c3ccccc23)o1` [Example 26, 1-Benzyl-3-(5-(N-(benzyloxy)carbamoyl)-2-furyl)indazole], the melting point was 140 to 143 °C.

The compound `CN(C(=O)c1ccc(-c2nn(Cc3ccccc3)c3ccccc23)o1)c1ccccc1` [Example 27, 1-Benzyl-3-(5-(N-methyl-N-phenylcarbamoyl)-2-furyl)indazole] returned a melting point of 190 °C. The same measure, in the same setting: for `COc1ccc(NC(=O)c2ccc(-c3nn(Cc4ccccc4)c4ccccc34)o2)cc1` [Example 28, 1-Benzyl-3-(5-(N-(4-methoxyphenyl)carbamoyl)-2-furyl)indazole] the value was 175 °C; for `O=C(Nc1ccccc1O)c1ccc(-c2nn(Cc3ccccc3)c3ccccc23)o1` [Example 29, 1-Benzyl-3-(5-(N-(2-hydroxyphenyl)carbamoyl)-2-furyl)indazole], 196 to 197 °C; for `CC(C)NC(=O)c1ccc(-c2nn(Cc3ccccc3)c3ccccc23)o1` [Example 31, 1-Benzyl-3-(5-(N-isopropylcarbamoyl)-2-furyl)indazole], 156 °C.

`CCCNC(=O)c1ccc(-c2nn(Cc3ccccc3)c3ccccc23)o1` [Example 32, 1-Benzyl-3-(5-(N-(n-propyl)carbamoyl)-2-furyl)indazole] had a melting point of 152 °C. Turning to `O=C(NC1CCCCC1)c1ccc(-c2nn(Cc3ccccc3)c3ccccc23)o1` [Example 33, 1-Benzyl-3-(5-(N-cyclohexylcarbamoyl)-2-furyl)indazole], the melting point stood at 165 °C. For the compound `O=C(NCc1ccccc1)c1ccc(-c2nn(Cc3ccccc3)c3ccccc23)o1` [Example 34, 1-Benzyl-3-(5-(N-benzylcarbamoyl)-2-furyl)indazole], the melting point was in the range of 113 to 124 °C. On the same count and under the same terms, under `CN(C)CCNC(=O)c1ccc(-c2nn(Cc3ccccc3)c3ccccc23)o1` [Example 35, 1-Benzyl-3-(5-(N-(2-dimethylaminoethyl)carbamoyl)-2-furyl)indazole] stands 130 °C; under `CC(C)N(CCNC(=O)c1ccc(-c2nn(Cc3ccccc3)c3ccccc23)o1)C(C)C` [Example 36, 1-Benzyl-3-(5-(N-(2-diisopropylaminoethyl)carbamoyl)-2-furyl)indazole], 119 to 127 °C.

`NC(=O)CNC(=O)c1ccc(-c2nn(Cc3ccccc3)c3ccccc23)o1` [Example 37, 1-Benzyl-3-(5-(N-(carbamoylmethyl)carbamoyl)-2-furyl)indazole]: the melting point lay within 219 to 222 °C. Same read-out and setting: under `O=C(NCc1ccccn1)c1ccc(-c2nn(Cc3ccccc3)c3ccccc23)o1` [Example 38, 1-Benzyl-3-(5-(N-(2-pyridylmethyl)carbamoyl)-2-furyl)indazole] stands 160 °C. Broadly, the IC50 is the concentration needed to halve the response being measured. Read a high IC50 as a need for much substance. On to `CNC(=O)c1ccc(-c2nn(Cc3ccccc3)c3ccccc23)o1` [Example 40, 1-Benzyl-3-(5-(N-methylcarbamoyl)-2-furyl)indazole], for which the n-fold stimulation in data set [1] (concentration 100 μM) was 2.4-fold. Moreover, the IC50 in the data set on rat aorta rings (Ring with endothelium) is 2400 nM; in the data set on rat aorta rings (Ring without endothelium), 200 nM.

The compound `OC(c1ccccc1)c1ccc(-c2nn(Cc3ccccc3)c3ccccc23)o1` (stereo not shown) [Example 43, 1-Benzyl-3-(5-(1-hydroxy-1-phenylmethyl)-2-furyl)indazole] showed a melting point of 138 to 139 °C.
